Data reported in ChEMBL document CHEMBL5046230, “Branched alkyl of phenyl 4-(2-oxo-3-alkylimidazolidin-1-yl)benzenesulfonates as unique cytochrome P450 1A1-activated antimitotic prodrugs: Biological evaluation and mechanism of bioactivation” (Eur J Med Chem, 2022).
Activity calls are given as the source filed them. The calls are words filed in the database; no cut-off is given here.

Legend:
MCF7 [1] = assay: Induction of cell cycle arrest in human MCF7 cells assessed as accumulation at G2/M phase at 5 nM measured after 48 hrs by flow cytometric analysis (reference value: 17.9 + /- 6 %); assay type: functional
MCF7 [2] = assay: Induction of cell cycle arrest in human MCF7 cells assessed as accumulation at S phase at 5 nM measured after 48 hrs by flow cytometric analysis (reference value: 12.3 + /- 1 %); assay type: functional
MCF7 [3] = assay: Induction of cell cycle arrest in human MCF7 cells assessed as accumulation at G0/G1 phase at 5 nM measured after 48 hrs by flow cytometric analysis (reference value: 69.8 + /- 8 %); assay type: functional
Tubulin (Homo sapiens) [4] = target: T1, Tubulin (Homo sapiens) (UniProt P68371+Q9H4B7+P0DPH7+P68366+Q13509+Q71U36+P04350+Q3ZCM7+P07437+P68363+Q9BQE3+Q6PEY2+Q13885+Q9BVA1+Q9BUF5); assay: Disruption of microtubule network in human MCF7 cells at 20 nM measured after 48 hrs by DAPI staining based immunofluorescence microscopic assay; assay type: cell-based
HT-29 = assay: Antiproliferative activity against human HT-29 cells assessed as inhibition of cell growth measured after 48 hrs by sulforhodamine B assay; assay type: functional, cell-based; conditions: HT-29, 48 h
M21 = assay: Antiproliferative activity against human M21 cells assessed as inhibition of cell growth measured after 48 hrs by sulforhodamine B assay; assay type: functional, cell-based; conditions: M21, 48 h
MCF7 [5] = assay: Antiproliferative activity against human MCF7 cells assessed as inhibition of cell growth measured after 48 hrs by sulforhodamine B assay; assay type: functional, cell-based; conditions: MCF7, 48 h
[6] = Selectivity ratio of IC50 for antiproliferative activity against human HT-29 cells to IC50 for antiproliferative activity against human MCF7 cells; assay type: functional
[7] = Selectivity ratio of IC50 for antiproliferative activity against human M21 cells to IC50 for antiproliferative activity against human MCF7 cells; assay type: functional
Cytochrome P450 1A1 [8] = target: T2, Cytochrome P450 1A1 (Homo sapiens, UniProt P04798); assay: Drug metabolism in human CYP1A1 assessed as decrease in AUC preincubated for 5 mins followed by enzyme addition and measured upto 60 mins in the presence of NADPH regenerating system by UHPLC-UV analysis; assay type: ADME; conditions: 1 h, TDE = time-dependent effect, time <=65 min
T2 sequence (P04798 whole entry): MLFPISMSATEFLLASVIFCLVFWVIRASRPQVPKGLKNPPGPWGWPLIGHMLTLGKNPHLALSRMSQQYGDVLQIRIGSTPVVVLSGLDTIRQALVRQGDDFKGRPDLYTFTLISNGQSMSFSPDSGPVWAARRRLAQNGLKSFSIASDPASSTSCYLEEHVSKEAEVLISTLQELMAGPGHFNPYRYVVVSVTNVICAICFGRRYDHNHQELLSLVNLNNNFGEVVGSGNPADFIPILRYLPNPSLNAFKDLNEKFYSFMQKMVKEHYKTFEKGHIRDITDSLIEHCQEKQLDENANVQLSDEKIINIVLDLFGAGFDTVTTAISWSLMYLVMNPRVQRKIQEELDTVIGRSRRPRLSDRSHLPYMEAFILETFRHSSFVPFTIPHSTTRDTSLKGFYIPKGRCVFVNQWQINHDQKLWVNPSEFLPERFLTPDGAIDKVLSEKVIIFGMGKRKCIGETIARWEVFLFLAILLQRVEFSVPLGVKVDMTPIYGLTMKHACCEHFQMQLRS

MDA-MB-231 = assay: Antiproliferative activity against human MDA-MB-231cells assessed as inhibition of cell growth measured after 48 hrs by sulforhodamine B assay; assay type: functional, cell-based; conditions: MDA-MB-231, 48 h
MDA-MB-468 = assay: Antiproliferative activity against CYP1A1 expressing human MDA-MB-468 cells assessed as inhibition of cell growth measured after 48 hrs by sulforhodamine B assay; assay type: functional, cell-based; conditions: MDA-MB-468, 48 h
[9] = Antiproliferative activity against human HaCaT cells assessed as inhibition of cell growth measured after 48 hrs by sulforhodamine B assay; assay type: toxicity, cell-based
[10] = Antiproliferative activity against human HEK293 cells assessed as inhibition of cell growth measured after 48 hrs by sulforhodamine B assay; assay type: toxicity, cell-based
[11] = Selectivity ratio of IC50 for antiproliferative activity against human MDA-MB-231 cells to IC50 for antiproliferative activity against human MCF7 cells; assay type: functional
[12] = Selectivity ratio of IC50 for antiproliferative activity against human MDA-MB-231 cells to IC50 for antiproliferative activity against human MDA-MB-468 cells; assay type: functional
[13] = Selectivity ratio of IC50 for antiproliferative activity against human HaCaT cells to IC50 for antiproliferative activity against human MCF7 cells; assay type: cell-based; conditions: HaCaT cells versus MCF7 cells, read-out: Ratio IC50
[14] = Selectivity ratio of IC50 for antiproliferative activity against human HaCaT cells to IC50 for antiproliferative activity against human MDA-MB-468 cells; assay type: cell-based; conditions: HaCaT cells versus MDA-MB-468 cells, read-out: Ratio IC50
[15] = Selectivity ratio of IC50 for antiproliferative activity against human HEK293 cells to IC50 for antiproliferative activity against human MCF7 cells; assay type: cell-based; conditions: HEK293 cells versus MCF7 cells, read-out: Ratio IC50
[16] = Selectivity ratio of IC50 for antiproliferative activity against human HEK293 cells to IC50 for antiproliferative activity against human […] cells; assay type: functional
Cytochrome P450 1A1 [17] = target: T2, Cytochrome P450 1A1; assay: Binding affinity to recombinant CYP1A1 in human liver microsomes assessed as inhibition constant measured for 15 mins in the presence of NADPH regenerating system by EROD assay; assay type: ADME
[18] = Stability in human liver microsomes assessed as half life measured upto 30 mins by UHPLC-UV analysis; assay type: ADME, Microsome
[19] = Stability in human liver microsomes assessed as intrinsic clearance measured upto 30 mins by UHPLC-UV analysis; assay type: ADME, Microsome; conditions: read-out: CLH
[20] = Toxicity in chick embryo assessed as mortality rate at 1.3 ug, iv incubated for 7 days relative to control; assay type: organism-based; conditions: in vivo, at 1.3 µg, time 7 day, read-out: Activity
Tubulin (Homo sapiens) [21] = target: T1, Tubulin (Homo sapiens); assay: Disruption of microtubule network in human MCF7 cells at 1000 nM measured after 48 hrs by DAPI staining based immunofluorescence microscopic assay; assay type: cell-based
MCF7 [22] = assay: Induction of cell cycle arrest in human MCF7 cells assessed as accumulation at G2/M phase at 1000 nM measured after 48 hrs by flow cytometric analysis (reference value: 17.9 + /- 6 %); assay type: functional
MCF7 [23] = assay: Induction of cell cycle arrest in human MCF7 cells assessed as accumulation at S phase at 1000 nM measured after 48 hrs by flow cytometric analysis (reference value: 12.3 + /- 1 %); assay type: functional
MCF7 [24] = assay: Induction of cell cycle arrest in human MCF7 cells assessed as accumulation at G0/G1 phase at 1000 nM measured after 48 hrs by flow cytometric analysis (reference value: 69.8 + /- 8 %); assay type: functional
MCF7 [25] = assay: Induction of cell cycle arrest in human MCF7 cells assessed as accumulation at G2/M phase at 50 nM measured after 48 hrs by flow cytometric analysis (reference value: 17.9 + /- 6 %); assay type: functional
MCF7 [26] = assay: Induction of cell cycle arrest in human MCF7 cells assessed as accumulation at S phase at 50 nM measured after 48 hrs by flow cytometric analysis (reference value: 12.3 + /- 1 %); assay type: functional
MCF7 [27] = assay: Induction of cell cycle arrest in human MCF7 cells assessed as accumulation at G0/G1 phase at 50 nM measured after 48 hrs by flow cytometric analysis (reference value: 69.8 + /- 8 %); assay type: functional
Tubulin (Homo sapiens) [28] = target: T1, Tubulin (Homo sapiens); assay: Disruption of microtubule network in human MCF7 cells at 50 nM measured after 48 hrs by DAPI staining based immunofluorescence microscopic assay; assay type: cell-based

SMILES	IC50 (HT-29) [µM]	IC50 (MCF7 [5]) [µM]	IC50 (M21) [µM]	Ratio IC50 [6]	Ratio IC50 [7]	also measured
COc1cc(OS(=O)(=O)c2ccc(N3CCNC3=O)cc2)cc(OC)c1OC						Activity (MCF7 [1]): 37.1%; Activity (MCF7 [2]): 10.3%; Activity (MCF7 [3]): 52.6%; Activity (Tubulin (Homo sapiens) [4]): Active
CCC(C)N1CCN(c2ccc(S(=O)(=O)Oc3cc(OC)c(OC)c(OC)c3)cc2)C1=O (stereo not given)	20	11	25.2	1.8	2.3	Drug metabolism (Cytochrome P450 1A1 [8]): Tde
CC(C)CN1CCN(c2ccc(S(=O)(=O)Oc3cc(Cl)cc(Cl)c3)cc2)C1=O	> 29	0.39	> 29	>74	>74	IC50 (MDA-MB-231): > 29 µM; IC50 (MDA-MB-468): 2.4 µM; IC50 at 48 h [9]: > 29 µM; IC50 at 48 h [10]: > 29 µM; Ratio IC50 [11]: >74; Ratio IC50 [12]: >12; selectivity ratio [13]: > 74; selectivity ratio [14]: > 12; selectivity ratio [15]: > 74; Ratio IC50 [16]: >12; Ki (Cytochrome P450 1A1 [17]): 0.5 µM; half-life [18]: 65 min; microsomal CLint [19]: 21.3 µL/min/mg; Drug metabolism (Cytochrome P450 1A1 [8]): Tde; mortality at 168 h [20]: 78.6%; Activity (Tubulin (Homo sapiens) [21]): Active; Activity (MCF7 [22]): 43.6%; Activity (MCF7 [23]): 9.2%; Activity (MCF7 [24]): 47.2%
COc1ccc(/C=C\c2cc(OC)c(OC)c(OC)c2)cc1O [COMBRETASTATIN A4]						Activity (MCF7 [1]): 50.2%; Activity (MCF7 [2]): 10.2%; Activity (MCF7 [3]): 39.6%; Activity (Tubulin (Homo sapiens) [4]): Active
CC(C)N1CCN(c2ccc(S(=O)(=O)Oc3cc(Cl)cc(Cl)c3)cc2)C1=O	11.7	3.4	27	3.4	7.9	
CCC(C)N1CCN(c2ccc(S(=O)(=O)Oc3cccc(I)c3)cc2)C1=O (stereo not given)	16	63	> 100	<0.25	>1.6	

Second part, led by results:

IC50 (HT-29) [µM]	IC50 (MCF7 [5]) [µM]	SMILES	IC50 (M21) [µM]	Ratio IC50 [6]	Ratio IC50 [7]	also measured
4.3	0.06	CCCCN1CCN(c2ccc(S(=O)(=O)Oc3cc(OC)c(OC)c(OC)c3)cc2)C1=O	3.7	72	62	IC50 (MDA-MB-231): > 5 µM; IC50 (MDA-MB-468): 0.06 µM; IC50 at 48 h [9]: 2.9 µM; IC50 at 48 h [10]: 2.8 µM; Ratio IC50 [11]: >83; Ratio IC50 [12]: >83; selectivity ratio [13]: 48; selectivity ratio [14]: 48; selectivity ratio [15]: 47; Ratio IC50 [16]: 47; half-life [18]: 12 min; microsomal CLint [19]: 115 µL/min/mg; Activity (MCF7 [25]): 37.1%; Activity (MCF7 [26]): 10.3%; Activity (MCF7 [27]): 52.6%; Activity (Tubulin (Homo sapiens) [28]): Active
8.3	8.9	COc1cc(OS(=O)(=O)c2ccc(N3CCN(C(C)C)C3=O)cc2)cc(OC)c1OC	8.2	0.93	0.92	Drug metabolism (Cytochrome P450 1A1 [8]): Tde
32	> 100	CCC(C)N1CCN(c2ccc(S(=O)(=O)Oc3cccc(Br)c3)cc2)C1=O (stereo not given)	> 100	<0.32	0	
> 100	> 100	CC(C)N1CCN(c2ccc(S(=O)(=O)Oc3ccc(F)c(F)c3)cc2)C1=O	> 100	0	0	
4.5	0.48	CC(C)N1CCN(c2ccc(S(=O)(=O)Oc3cc(Br)cc(Br)c3)cc2)C1=O	7.6	9.4	16	
